In experiment [1] the target is T1, 5-hydroxytryptamine receptor 4 (Cavia porcellus, UniProt O70528). Put plainly: Binding affinity towards 5-hydroxytryptamine 4 receptor in striatum membranes of guinea-pig brain was evaluated. The experiment is classed as cell membranes, Membrane.
In experiment [2] the target is T2, Serotonin 3 (5-HT3) receptor (Rattus norvegicus, UniProt P35563+Q9JJ16).
T2 sequence (P35563 whole entry): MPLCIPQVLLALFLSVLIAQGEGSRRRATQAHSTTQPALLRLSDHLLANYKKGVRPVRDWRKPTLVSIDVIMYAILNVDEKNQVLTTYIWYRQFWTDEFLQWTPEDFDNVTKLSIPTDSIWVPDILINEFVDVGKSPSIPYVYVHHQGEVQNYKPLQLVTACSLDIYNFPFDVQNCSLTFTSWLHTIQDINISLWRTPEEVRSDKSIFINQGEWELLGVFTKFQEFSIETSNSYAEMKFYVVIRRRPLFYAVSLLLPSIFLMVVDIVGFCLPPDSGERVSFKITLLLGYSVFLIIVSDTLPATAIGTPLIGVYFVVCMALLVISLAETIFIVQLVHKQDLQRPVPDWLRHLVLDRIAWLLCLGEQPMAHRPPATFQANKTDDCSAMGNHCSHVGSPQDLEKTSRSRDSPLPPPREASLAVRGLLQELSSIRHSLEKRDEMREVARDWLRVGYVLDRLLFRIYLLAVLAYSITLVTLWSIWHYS
T2 sequence (Q9JJ16 whole entry): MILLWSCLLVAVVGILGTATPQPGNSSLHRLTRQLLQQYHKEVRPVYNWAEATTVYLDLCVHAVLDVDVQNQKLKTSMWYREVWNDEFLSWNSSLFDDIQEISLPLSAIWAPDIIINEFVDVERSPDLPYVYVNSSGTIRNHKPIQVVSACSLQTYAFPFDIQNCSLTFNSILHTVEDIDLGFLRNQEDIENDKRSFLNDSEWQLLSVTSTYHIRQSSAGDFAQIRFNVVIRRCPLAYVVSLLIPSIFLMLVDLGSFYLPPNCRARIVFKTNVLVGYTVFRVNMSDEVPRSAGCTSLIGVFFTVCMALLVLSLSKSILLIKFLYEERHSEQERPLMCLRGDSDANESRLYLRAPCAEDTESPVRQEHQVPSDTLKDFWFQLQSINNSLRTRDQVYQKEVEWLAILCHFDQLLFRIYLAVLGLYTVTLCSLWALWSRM
Briefly: Binding affinity towards 5-HT3 receptor in rat was evaluated.

In experiment [3] the target is T1, 5-hydroxytryptamine receptor 4. Briefly: Binding affinity towards 5-HT4 receptor in striatum membranes of guinea-pig brain was evaluated. The experiment is classed as cell membranes, Membrane.
Experiment [4] has as its target T3, D(2) dopamine receptor (Rattus norvegicus, UniProt P61169). Briefly: Binding affinity towards D2 receptor in rat was evaluated.
In experiment [5] the target is T3, D(2) dopamine receptor. Put plainly: Binding affinity towards Dopamine receptor D2 in rat was evaluated.
For experiment [6], the target named is T2, Serotonin 3 (5-HT3) receptor. Put plainly: Binding affinity towards rat 5-hydroxytryptamine 3 receptor was evaluated. The experiment is classed as protein-complex assay.

These results are taken from ChEMBL document CHEMBL1135371, “Synthesis and pharmacology of isoquinuclidine derivatives as 5-HT(3) ligands” (Bioorg Med Chem Lett, 2002).

By IC50 is commonly meant the concentration at which inhibition is half-maximal. Low readings indicate inhibition by little substance, high ones a need for much substance. As usually defined, the Ki is the equilibrium dissociation constant of an inhibitor or competing ligand from its target. A higher Ki goes with a looser hold on the target.

T1 sequence (O70528 whole entry): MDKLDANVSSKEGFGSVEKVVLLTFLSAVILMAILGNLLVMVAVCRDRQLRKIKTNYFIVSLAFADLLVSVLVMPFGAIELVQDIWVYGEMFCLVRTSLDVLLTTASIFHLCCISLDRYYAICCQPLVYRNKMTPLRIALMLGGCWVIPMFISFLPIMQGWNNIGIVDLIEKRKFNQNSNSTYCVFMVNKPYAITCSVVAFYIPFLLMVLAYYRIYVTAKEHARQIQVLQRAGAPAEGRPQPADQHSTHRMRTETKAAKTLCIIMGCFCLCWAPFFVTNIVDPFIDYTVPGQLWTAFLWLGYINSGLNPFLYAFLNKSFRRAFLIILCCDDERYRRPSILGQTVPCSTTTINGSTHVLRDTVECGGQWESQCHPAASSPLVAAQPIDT
T3 sequence (P61169 whole entry): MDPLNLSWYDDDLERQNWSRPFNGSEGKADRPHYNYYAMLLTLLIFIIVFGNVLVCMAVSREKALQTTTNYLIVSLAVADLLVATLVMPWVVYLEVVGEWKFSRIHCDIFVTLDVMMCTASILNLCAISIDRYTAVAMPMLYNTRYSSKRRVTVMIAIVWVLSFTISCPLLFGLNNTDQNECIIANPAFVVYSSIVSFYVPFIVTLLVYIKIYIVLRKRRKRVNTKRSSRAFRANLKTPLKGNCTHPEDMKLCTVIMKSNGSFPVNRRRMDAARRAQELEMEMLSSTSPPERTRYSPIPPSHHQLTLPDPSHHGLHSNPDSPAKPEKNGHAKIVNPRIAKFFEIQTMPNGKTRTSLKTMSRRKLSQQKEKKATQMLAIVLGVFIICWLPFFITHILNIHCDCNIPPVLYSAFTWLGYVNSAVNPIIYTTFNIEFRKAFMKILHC

As to `COc1cc(N)c(Cl)cc1C(=O)NC1CC2CCC1N(C)C2` (centres undefined), the IC50 in experiment [1] is 1000 nM; in experiment [2], more than 1000 nM; in experiment [3], more than 1000 nM; on D(2) dopamine receptor [4] it was 1000 nM; on D(2) dopamine receptor [5], more than 1000 nM. This compound returned a Ki in experiment [2] of 327 nM.

Take `COc1cc(N)c(Cl)cc1C(=O)OC1CC2CCC1CN2C` (stereo in doubt; anti): the inhibition constant (Ki) in experiment [1] turned out to be 82.6 nM; in experiment [2], 5.19 nM. At D(2) dopamine receptor [5], this compound registered an IC50 of more than 1000 nM.

`COc1cc(N)c(Cl)cc1C(=O)OC1CC2CCC1N(C)C2` (stereo in doubt; anti): the half-maximal inhibitory concentration (IC50) (in experiment [1]; on D(2) dopamine receptor [5]) was more than 1000 nM throughout. Moreover, the Ki in experiment [2] turned out to be 13.8 nM.

With `COc1cc(N)c(Cl)cc1C(=O)NC1CC2CCC1CN2C` (stereo in doubt; anti), the figures for the half-maximal inhibitory concentration (IC50) in experiment [1] and in experiment [2] were more than 1000 nM and 17300 nM, respectively. Moreover, affinity at D(2) dopamine receptor [5] was put at a Ki of 130 nM.

For the compound `COc1cc(N)c(Cl)cc1C(=O)OC1CC2CCC1CN2C` (stereo in doubt; syn), the values for the Ki in experiment [2] and in experiment [3] were 11.2 nM and 240 nM, respectively. At D(2) dopamine receptor [4], this compound came in with an IC50 of more than 1000 nM.

On to `COc1cc(N)c(Cl)cc1C(=O)OC1CC2CCC1N(C)C2` (stereo in doubt; syn), for which the affinity in experiment [2] corresponds to a Ki of 192 nM. In addition, the IC50 (in experiment [3]; on D(2) dopamine receptor [4]) was more than 1000 nM in each case.

Turning to `COc1cc(N)c(Cl)cc1C(=O)NC1CC2CCC1CN2C` (stereo in doubt; syn), the IC50 in experiment [2] and in experiment [3] was 1000 nM each time. The Ki on D(2) dopamine receptor [4] was determined as 842 nM.

As for `CN1C2CCCC1CC(NC(=O)c1nn(C)c3ccccc13)C2` (centres undefined) [GRANISETRON], the IC50 (in experiment [3]; on D(2) dopamine receptor [4]) was more than 1000 nM throughout.

Turning to `CN1[C@@H]2CC[C@H]1C[C@@H](OC(=O)c1c[nH]c3ccccc13)C2` [TROPISETRON], the results for the Ki in experiment [1] and in experiment [6] were 125 nM and 1.55 nM, respectively. In addition, the IC50 on D(2) dopamine receptor [5] is more than 1000 nM.
